Usually ED50 stands for the midpoint of the dose-response relation. As usually defined, the LD50 is the dose at which mortality reaches 50%. Low readings indicate a more toxic substance, high ones a less toxic substance.

11 compounds from patent US5036091A, “3-Aryloxazolidinone derivatives, process for their preparation and their use in therapy” (Delalande S.A., priority 1989, dated 1991) can be followed below.

One series has as its system 5-HTP potentialisation. As to the kind of experiment: 5-HTP potentialisation assay in rat (antidepressive activity). As to conditions: po, compound given orally, 5-HTP intra-peritoneal 1 h after the first treatment, read-out: ED50 (dose which brings about in 50% of the animals generalized shakings or stereotypies consecutive to 5-HTP). The class given is in vivo. Here is the method: Int. Pharmacodyn. (1982), 259, 194-221. The dose of product which, when given orally, brings about in 50% of the animals (ED50) the appearance of generalized shakings or of stereotypies (trinklings, shakes of head) consecutive to the administration by intra-peritoneal route 1 h after the first treatment of 5-hydroxy-tryptophane (5-HTP) is determined in rat.
As to `COCC1CN(c2ccc(OCCC(C)O)cc2)C(=O)O1` (racemic) [MD370047, 3-[4-(3-hydroxybutoxy)phenyl]-5-methoxymethyl-2-oxazolidinone], the ED50 turned out to be 1.9 mg/kg.

Take `COCC1CN(c2ccc(OCCC(O)C(F)(F)F)cc2)C(=O)O1` (racemic) [MD370167, 3-[4-(4,4,4-trifluoro-3-hydroxybutoxy)phenyl]-5-methoxymethyl-2-oxazolidinone]: the ED50 is 1.1 mg/kg.

For `COC[C@H]1CN(c2ccc(CCCC(C)O)cc2)C(=O)O1` (stereo partly drawn) [MD230082, 3-[4-(4-hydroxypentyl)phenyl]-5(R)-methoxymethyl-2-oxazolidinone], the ED50 worked out at 1.1 mg/kg.

Consider `CCOC[C@H]1CN(c2ccc(OCC[C@@H](O)C(F)(F)F)cc2)C(=O)O1` [MD230197], for which the ED50 was found to be 2.4 mg/kg.

As for `COC[C@H]1CN(c2ccc(OCC3CCCC3O)cc2)C(=O)O1` (stereo partly drawn) [MD230201, 3-[4-(1-hydroxy-2-cyclopentylmethoxy)phenyl]-5(R)-methoxymethyl-2-oxazolidinone], the ED50 worked out at 1.6 mg/kg.

As to `COC[C@H]1CN(c2ccc(CCC[C@@H](C)O)cc2)C(=O)O1` [MD230238, 3-[4-(4(R)-hydroxypentyl)phenyl]-5(R)-methoxymethyl-2-oxazolidinone], the ED50 was found to be 1.9 mg/kg.

With `COC[C@H]1CN(c2ccc(OCC[C@@H](C)O)cc2)C(=O)O1` [MD370120, 3-[4-(3(R)-hydroxybutoxy)phenyl]-5(R)-methoxymethyl-2-oxazolidinone], the ED50 was 0.83 mg/kg.

As for `COC[C@H]1CN(c2ccc(OCC[C@H](C)O)cc2)C(=O)O1` [MD370122, 3-[4-(3(S)-hydroxybutoxy)phenyl]-5(R)-methoxymethyl-2-oxazolidinone], the ED50 stood at 0.68 mg/kg.

`COC[C@H]1CN(c2ccc(OCC[C@@H](O)C(F)(F)F)cc2)C(=O)O1` [MD370503, 3-[4-(4,4,4-trifluoro-3(R)-hydroxybutoxy)phenyl]-5(R)-methoxymethyl-2-oxazolidinone]: the ED50 is 0.14 mg/kg.

Turning to `COC[C@H]1CN(c2ccc(OCC[C@H](O)C(F)(F)F)cc2)C(=O)O1` [MD370504, 3-[4-(4,4,4-trifluoro-3(S)-hydroxybutoxy)phenyl]-5(R)-methoxymethyl-2-oxazolidinone], the ED50 is 1.8 mg/kg.

For the compound `Cc1cccc(N2CC(CO)OC2=O)c1` (stereo not shown) [TOLOXATONE, reference compound], the ED50 came out at 30 mg/kg.

Tested on in another series: not listed separately
The series is described as follows: acute toxicity in mouse. The conditions noted are these: in vivo, po, method of Litchfield and Wilcoxon.
With `COC[C@H]1CN(c2ccc(OCC[C@@H](C)O)cc2)C(=O)O1` [MD370120, 3-[4-(3(R)-hydroxybutoxy)phenyl]-5(R)-methoxymethyl-2-oxazolidinone], the LD50 amounted to 1400 mg/kg.

In turn, `COC[C@H]1CN(c2ccc(OCC[C@@H](O)C(F)(F)F)cc2)C(=O)O1` [MD370503, 3-[4-(4,4,4-trifluoro-3(R)-hydroxybutoxy)phenyl]-5(R)-methoxymethyl-2-oxazolidinone] returned a 50% lethal dose (LD50) of 2500 mg/kg.
